From ChEMBL document CHEMBL4002634, “Benzoflavones as cholesterol esterase inhibitors: Synthesis, biological evaluation and docking studies” (Bioorg Med Chem Lett, 2017)

Columns and labels:
[1] = molecular target: T1, Carboxylic ester hydrolase (Sus scrofa) (UniProt A0A286ZKB1); experiment: Inhibition of porcine cholesterol esterase at 1 nM using para-nitrophenyl butyrate as substrate after 5 mins in presence of sodium taurocholate by spectrophotometric method relative to control
T1 sequence (whole entry): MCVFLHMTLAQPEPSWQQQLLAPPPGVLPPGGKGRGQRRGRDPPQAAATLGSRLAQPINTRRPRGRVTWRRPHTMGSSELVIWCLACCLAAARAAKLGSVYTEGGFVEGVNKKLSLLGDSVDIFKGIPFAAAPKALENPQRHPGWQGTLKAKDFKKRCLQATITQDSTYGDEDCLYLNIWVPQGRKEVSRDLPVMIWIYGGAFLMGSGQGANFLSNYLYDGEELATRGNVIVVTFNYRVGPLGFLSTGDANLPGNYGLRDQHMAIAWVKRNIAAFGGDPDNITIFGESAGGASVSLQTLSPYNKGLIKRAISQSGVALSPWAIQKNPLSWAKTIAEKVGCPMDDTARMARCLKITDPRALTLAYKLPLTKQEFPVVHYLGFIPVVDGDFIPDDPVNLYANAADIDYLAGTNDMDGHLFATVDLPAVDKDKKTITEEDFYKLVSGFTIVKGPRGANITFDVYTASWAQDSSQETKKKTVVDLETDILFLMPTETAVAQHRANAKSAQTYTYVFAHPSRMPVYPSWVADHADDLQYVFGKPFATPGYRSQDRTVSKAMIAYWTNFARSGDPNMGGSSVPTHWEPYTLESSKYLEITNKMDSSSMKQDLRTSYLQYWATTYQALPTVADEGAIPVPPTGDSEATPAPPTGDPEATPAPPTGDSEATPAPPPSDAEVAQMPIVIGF

[2] = molecular target: T1, Carboxylic ester hydrolase (Sus scrofa); experiment: Inhibition of porcine cholesterol esterase at 5 nM using para-nitrophenyl butyrate as substrate after 5 mins in presence of sodium taurocholate by spectrophotometric method relative to control
[3] = molecular target: T1, Carboxylic ester hydrolase (Sus scrofa); experiment: Inhibition of porcine cholesterol esterase at 10 nM using para-nitrophenyl butyrate as substrate after 5 mins in presence of sodium taurocholate by spectrophotometric method relative to control
[4] = molecular target: T2, Carboxylic ester hydrolase (Sus scrofa, UniProt A0A286ZKB1); experiment: Inhibition of porcine cholesterol esterase using para-nitrophenyl butyrate as substrate after 5 mins in presence of sodium taurocholate by spectrophotometric method
T2 sequence (A0A286ZKB1 whole entry): T1 sequence (whole entry)

[5] = molecular target: T1, Carboxylic ester hydrolase (Sus scrofa); experiment: Inhibition of porcine cholesterol esterase at 50 nM using para-nitrophenyl butyrate as substrate after 5 mins in presence of sodium taurocholate by spectrophotometric method relative to control
[6] = molecular target: T1, Carboxylic ester hydrolase (Sus scrofa); experiment: Inhibition of porcine cholesterol esterase at 25 nM using para-nitrophenyl butyrate as substrate after 5 mins in presence of sodium taurocholate by spectrophotometric method relative to control

Compound: O=c1cc(-c2cccc(Cl)c2Cl)oc2c1ccc1ccccc12
- inhibition [1]: 50%
- inhibition [2]: 64%
- inhibition [3]: 78%
- IC50 ([4]; read-out: IC50): 10.8 nM
- inhibition [5]: 84%
- inhibition [6]: 82%

Compound: O=c1cc(-c2ccccc2Br)oc2c1ccc1ccccc12
- inhibition [1]: 51%
- inhibition [2]: 66%
- inhibition [3]: 79%
- IC50 ([4]; read-out: IC50): 11 nM
- inhibition [5]: 83%
- inhibition [6]: 81%

Compound: O=c1cc(-c2ccccc2F)oc2c1ccc1ccccc12
- inhibition [1]: 50%
- inhibition [2]: 65%
- inhibition [3]: 81%
- IC50 ([4]; read-out: IC50): 3.22 nM
- inhibition [5]: 89%
- inhibition [6]: 84%

Compound: O=c1cc(-c2ccc(I)cc2)oc2c1ccc1ccccc12
- inhibition [1]: 38%
- inhibition [2]: 53%
- inhibition [3]: 71%
- IC50 ([4]; read-out: IC50): 34.1 nM
- inhibition [5]: 75%
- inhibition [6]: 73%

Compound: COc1ccc(-c2cc(=O)c3ccc4ccccc4c3o2)cc1OC
- inhibition [1]: 5%
- inhibition [2]: 14%
- inhibition [3]: 20%
- IC50 [4]: Not Active
- inhibition [5]: 25%
- inhibition [6]: 23%

Compound: CN(C)c1ccc(-c2cc(=O)c3ccc4ccccc4c3o2)cc1
- inhibition [1]: 9%
- inhibition [2]: 12%
- inhibition [3]: 18%
- IC50 [4]: Not Active
- inhibition [5]: 23%
- inhibition [6]: 21%

Compound: COc1ccc(-c2cc(=O)c3ccc4ccccc4c3o2)c(OC)c1
- inhibition [1]: 6%
- inhibition [2]: 12%
- inhibition [3]: 21%
- IC50 [4]: Not Active
- inhibition [5]: 28%
- inhibition [6]: 25%

Compound: O=c1cc(-c2ccc(Br)cc2)oc2c1ccc1ccccc12
- inhibition [1]: 40%
- inhibition [2]: 59%
- inhibition [3]: 74%
- IC50 ([4]; read-out: IC50): 28.5 nM
- inhibition [5]: 77%
- inhibition [6]: 76%

Compound: O=c1cc(-c2ccccc2)oc2c1ccc1ccccc12 [ALPHA-NAPHTHOFLAVONE]
- inhibition [1]: 28%
- inhibition [2]: 33%
- inhibition [3]: 40%
- IC50 ([4]; read-out: IC50): 47.8 nM
- inhibition [5]: 51%
- inhibition [6]: 48%

Compound: O=c1cc(-c2ccc(F)cc2F)oc2c1ccc1ccccc12
- inhibition [1]: 51%
- inhibition [2]: 66%
- inhibition [3]: 80%
- IC50 ([4]; read-out: IC50): 1.43 nM
- inhibition [5]: 97%
- inhibition [6]: 91%

Compound: O=c1cc(-c2cccc(F)c2)oc2c1ccc1ccccc12
- inhibition [1]: 50%
- inhibition [2]: 64%
- inhibition [3]: 79%
- IC50 ([4]; read-out: IC50): 5.24 nM
- inhibition [5]: 87%
- inhibition [6]: 83%

Compound: O=c1cc(-c2cc([N+](=O)[O-])cc([N+](=O)[O-])c2)oc2c1ccc1ccccc12
- inhibition [1]: 41%
- inhibition [2]: 54%
- inhibition [3]: 72%
- IC50 ([4]; read-out: IC50): 30 nM
- inhibition [5]: 76%
- inhibition [6]: 75%

Compound: O=c1cc(-c2ccc([N+](=O)[O-])cc2)oc2c1ccc1ccccc12
- inhibition [1]: 35%
- inhibition [2]: 47%
- inhibition [3]: 68%
- IC50 ([4]; read-out: IC50): 37.3 nM
- inhibition [5]: 70%
- inhibition [6]: 69%

Compound: O=c1cc(-c2ccc(F)cc2C(F)(F)F)oc2c1ccc1ccccc12
- inhibition [1]: 28%
- inhibition [2]: 38%
- inhibition [3]: 44%
- IC50 ([4]; read-out: IC50): 39.1 nM
- inhibition [5]: 63%
- inhibition [6]: 55%

Compound: O=c1cc(-c2ccc(OC(F)(F)F)cc2)oc2c1ccc1ccccc12
- inhibition [1]: 20%
- inhibition [2]: 26%
- inhibition [3]: 35%
- IC50 [4]: Not Active
- inhibition [5]: 46%
- inhibition [6]: 42%

Compound: O=c1cc(-c2c(F)cccc2F)oc2c1ccc1ccccc12
- inhibition [1]: 54%
- inhibition [2]: 71%
- inhibition [3]: 83%
- IC50 ([4]; read-out: IC50): 1.99 nM
- inhibition [5]: 92%
- inhibition [6]: 88%

Compound: O=c1cc(-c2ccc(CCl)cc2)oc2c1ccc1ccccc12
- inhibition [1]: 32%
- inhibition [2]: 43%
- inhibition [3]: 48%
- IC50 ([4]; read-out: IC50): 39.2 nM
- inhibition [5]: 66%
- inhibition [6]: 60%

Compound: O=c1cc(-c2ccccc2I)oc2c1ccc1ccccc12
- inhibition [1]: 46%
- inhibition [2]: 64%
- inhibition [3]: 78%
- IC50 ([4]; read-out: IC50): 16.1 nM
- inhibition [5]: 80%
- inhibition [6]: 79%

Compound: O=c1cc(-c2ccc(F)c(C(F)(F)F)c2)oc2c1ccc1ccccc12
- inhibition [1]: 21%
- inhibition [2]: 34%
- inhibition [3]: 43%
- IC50 ([4]; read-out: IC50): 43 nM
- inhibition [5]: 63%
- inhibition [6]: 55%

Compound: O=c1cc(-c2cccc(C(F)(F)F)c2)oc2c1ccc1ccccc12
- inhibition [1]: 26%
- inhibition [2]: 30%
- inhibition [3]: 34%
- IC50 [4]: Not Active
- inhibition [5]: 57%
- inhibition [6]: 47%

Compound: O=c1cc(-c2ccc(F)cc2)oc2c1ccc1ccccc12
- inhibition [1]: 46%
- inhibition [2]: 62%
- inhibition [3]: 73%
- IC50 ([4]; read-out: IC50): 20.1 nM
- inhibition [5]: 79%
- inhibition [6]: 75%

Compound: Cc1ccc(-c2cc(=O)c3ccc4ccccc4c3o2)cc1
- inhibition [1]: 14%
- inhibition [2]: 18%
- inhibition [3]: 24%
- IC50 [4]: Not Active
- inhibition [5]: 34%
- inhibition [6]: 31%

Compound: O=c1cc(-c2cccc(OC(F)(F)F)c2)oc2c1ccc1ccccc12
- inhibition [1]: 17%
- inhibition [2]: 24%
- inhibition [3]: 32%
- IC50 [4]: Not Active
- inhibition [5]: 44%
- inhibition [6]: 39%

Compound: O=c1cc(-c2cc(F)cc(C(F)(F)F)c2)oc2c1ccc1ccccc12
- inhibition [1]: 27%
- inhibition [2]: 38%
- inhibition [3]: 41%
- IC50 ([4]; read-out: IC50): 43 nM
- inhibition [5]: 62%
- inhibition [6]: 54%

Compound: O=c1cc(-c2ccccc2C(F)(F)F)oc2c1ccc1ccccc12
- inhibition [1]: 29%
- inhibition [2]: 32%
- inhibition [3]: 36%
- IC50 [4]: Not Active
- inhibition [5]: 58%
- inhibition [6]: 48%

Compound: O=c1cc(-c2cc(C(F)(F)F)cc(C(F)(F)F)c2)oc2c1ccc1ccccc12
- inhibition [1]: 21%
- inhibition [2]: 28%
- inhibition [3]: 34%
- IC50 [4]: Not Active
- inhibition [5]: 54%
- inhibition [6]: 42%

Compound: CC(=O)Oc1ccc(-c2cc(=O)c3ccc4ccccc4c3o2)cc1
- inhibition [1]: 21%
- inhibition [2]: 28%
- inhibition [3]: 34%
- IC50 [4]: Not Active
- inhibition [5]: 56%
- inhibition [6]: 46%

Compound: O=c1cc(-c2ccc(C(F)(F)F)cc2F)oc2c1ccc1ccccc12
- inhibition [1]: 33%
- inhibition [2]: 43%
- inhibition [3]: 51%
- IC50 ([4]; read-out: IC50): 39 nM
- inhibition [5]: 67%
- inhibition [6]: 62%

Compound: O=c1cc(-c2ccc(F)c(F)c2)oc2c1ccc1ccccc12
- inhibition [1]: 48%
- inhibition [2]: 68%
- inhibition [3]: 76%
- IC50 ([4]; read-out: IC50): 14.1 nM
- inhibition [5]: 81%
- inhibition [6]: 79%

Compound: O=c1cc(-c2cccc(Br)c2)oc2c1ccc1ccccc12
- inhibition [1]: 43%
- inhibition [2]: 57%
- inhibition [3]: 73%
- IC50 ([4]; read-out: IC50): 26.1 nM
- inhibition [5]: 78%
- inhibition [6]: 76%

Compound: O=c1cc(-c2cc(F)ccc2F)oc2c1ccc1ccccc12
- inhibition [1]: 49%
- inhibition [2]: 65%
- inhibition [3]: 79%
- IC50 ([4]; read-out: IC50): 6.81 nM
- inhibition [5]: 86%
- inhibition [6]: 84%

Compound: O=c1cc(-c2cccc([N+](=O)[O-])c2)oc2c1ccc1ccccc12
- inhibition [1]: 36%
- inhibition [2]: 51%
- inhibition [3]: 71%
- IC50 ([4]; read-out: IC50): 25.1 nM
- inhibition [5]: 78%
- inhibition [6]: 75%
